# Assay results from the supplement of paper PMC8253809.
# How the values were obtained:
# DIPGX37 [1] = H3.3 K27M diffuse intrinsic pontine glioma line; experiment: EC50 (inflection of fitted growth-inhibition curve) (log10 M)
# Method in brief: (§1)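 EC50 and maximal response (yFin) were derived from the lowest-AICc fit, either three- or four-parameter log-logistic. The data were pooled CellTiter-Glo luminescence values, log2-transformed and normalised per plate to % activity between negative (solvent) and positive controls. Patient-derived pHGG/DIPG cell lines and astrocyte controls on 1% Geltrex-coated 384-well plates received a 10-point threefold dilution series (mean top concentration 35 μM) by pin tool, in triplicate, for 7 days (iAstro 3 days) at 37 °C, 5% CO2.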
# DIPGX7 [2] = H3.3 K27M diffuse intrinsic pontine glioma line; experiment: as above
# Method in brief: as §1
# DIPGX9 [3] = diffuse intrinsic pontine glioma line; experiment: as above
# Method in brief: as §1
# HABS [4] = astrocyte control; experiment: as above
# Method in brief: as §1
# HGGX2 [5] = paediatric high-grade glioma line; experiment: as above
# Method in brief: as §1
# HGGX39 [6] = paediatric high-grade glioma line; experiment: as above
# Method in brief: as §1
# HGGX42 [7] = H3.3 G34R paediatric high-grade glioma line; experiment: as above
# Method in brief: as §1
# HGGX6 [8] = H3.3 G34R paediatric high-grade glioma line; experiment: as above
# Method in brief: as §1
# SUDIPGIV [9] = diffuse intrinsic pontine glioma line; experiment: as above
# Method in brief: as §1
# SUDIPGVI [10] = diffuse intrinsic pontine glioma line; experiment: as above
# Method in brief: as §1
# SUDIPGXIII [11] = diffuse intrinsic pontine glioma line; experiment: as above
# Method in brief: as §1
# SUDIPGXIX [12] = diffuse intrinsic pontine glioma line; experiment: as above
# Method in brief: as §1
# SUDIPGXVII [13] = diffuse intrinsic pontine glioma line; experiment: as above
# Method in brief: as §1
# DIPGX37 [14] = experiment: maximal growth inhibition (yFin) relative to DMSO / staurosporine; higher = more efficacious
# Method in brief: as §1
# DIPGX7 [15] = experiment: as above
# Method in brief: as §1
# DIPGX9 [16] = experiment: as above
# Method in brief: as §1
# HABS [17] = experiment: as above
# Method in brief: as §1
# HGGX2 [18] = experiment: as above
# Method in brief: as §1
# HGGX39 [19] = experiment: as above
# Method in brief: as §1
# HGGX42 [20] = experiment: as above
# Method in brief: as §1
# HGGX6 [21] = experiment: as above
# Method in brief: as §1
# SUDIPGIV [22] = experiment: as above
# Method in brief: as §1
# SUDIPGVI [23] = experiment: as above
# Method in brief: as §1
# SUDIPGXIII [24] = experiment: as above
# Method in brief: as §1
# SUDIPGXIX [25] = experiment: as above
# Method in brief: as §1
# SUDIPGXVII [26] = experiment: as above
# Method in brief: as §1
# DIPGX29 = H3.3 K27M diffuse intrinsic pontine glioma line; experiment: area under dose-response curve of % growth inhibition (log2 RLU vs DMSO / staurosporine), 1e-11 to 1e-4 M (% x log10 M); higher = more growth inhibition
# Method in brief: (§2)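 Cells were exposed in triplicate for 7 days (iAstro: 3 days) at 37 °C, 5% CO2 to a 10-point series of threefold dilutions with a mean top concentration of 35 μM. These were patient-derived pHGG/DIPG lines plus astrocytes, grown on 384-well plates coated with 1% Geltrex. Readout was CellTiter-Glo luminescence, log2-transformed and set per plate to % activity between solvent and positive controls, from which area under the curve was derived by trapezoid rule on a log-logistic fit or, failing that, a smoothing spline.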
# DIPGX37 [27] = experiment: as above
# Method in brief: as §2
# DIPGX7 [28] = experiment: as above
# Method in brief: as §2
# DIPGX9 [29] = experiment: as above
# Method in brief: as §2
# HABS [30] = experiment: as above
# Method in brief: as §2
# HGGX2 [31] = experiment: as above
# Method in brief: as §2
# HGGX39 [32] = experiment: as above
# Method in brief: as §2
# HGGX42 [33] = experiment: as above
# Method in brief: as §2
# HGGX6 [34] = experiment: as above
# Method in brief: as §2
# SUDIPGIV [35] = experiment: as above
# Method in brief: as §2
# SUDIPGVI [36] = experiment: as above
# Method in brief: as §2
# SUDIPGXIII [37] = experiment: as above
# Method in brief: as §2
# SUDIPGXIX [38] = experiment: as above
# Method in brief: as §2
# SUDIPGXVII [39] = experiment: as above
# Method in brief: as §2
# SUDIPGXXI = diffuse intrinsic pontine glioma line; experiment: as above
# Method in brief: as §2
# iAstro = astrocyte control; experiment: as above
# Method in brief: as §2
smiles,measurement,setting,value
N#CN=C(NCCCCCCOc1ccc(Cl)cc1)Nc1ccncc1 [GMX-1778],EC50 (log10 M),DIPGX37 [1],-8.03
same,EC50 (log10 M),DIPGX7 [2],-7.31
same,EC50 (log10 M),DIPGX9 [3],-8.21
same,EC50 (log10 M),HABS [4],-7.62
same,EC50 (log10 M),HGGX2 [5],-8.25
same,EC50 (log10 M),HGGX39 [6],-7.85
same,EC50 (log10 M),HGGX42 [7],-7.48
same,EC50 (log10 M),HGGX6 [8],-7.85
same,EC50 (log10 M),SUDIPGIV [9],-7.21
same,EC50 (log10 M),SUDIPGVI [10],-7.79
same,EC50 (log10 M),SUDIPGXIII [11],-7.54
same,EC50 (log10 M),SUDIPGXIX [12],-7.5
same,EC50 (log10 M),SUDIPGXVII [13],-7.44
same,maximal growth inhibition,DIPGX37 [14],77.2%
same,maximal growth inhibition,DIPGX7 [15],114%
same,maximal growth inhibition,DIPGX9 [16],63.3%
same,maximal growth inhibition,HABS [17],76%
same,maximal growth inhibition,HGGX2 [18],103%
same,maximal growth inhibition,HGGX39 [19],74.6%
same,maximal growth inhibition,HGGX42 [20],90.6%
same,maximal growth inhibition,HGGX6 [21],74.7%
same,maximal growth inhibition,SUDIPGIV [22],104%
same,maximal growth inhibition,SUDIPGVI [23],93.6%
same,maximal growth inhibition,SUDIPGXIII [24],94.5%
same,maximal growth inhibition,SUDIPGXIX [25],127%
same,maximal growth inhibition,SUDIPGXVII [26],71.3%
same,area under dose-response curve,DIPGX29,465
same,area under dose-response curve,DIPGX37 [27],311
same,area under dose-response curve,DIPGX7 [28],380
same,area under dose-response curve,DIPGX9 [29],267
same,area under dose-response curve,HABS [30],275
same,area under dose-response curve,HGGX2 [31],426
same,area under dose-response curve,HGGX39 [32],287
same,area under dose-response curve,HGGX42 [33],315
same,area under dose-response curve,HGGX6 [34],288
same,area under dose-response curve,SUDIPGIV [35],333
same,area under dose-response curve,SUDIPGVI [36],354
same,area under dose-response curve,SUDIPGXIII [37],335
same,area under dose-response curve,SUDIPGXIX [38],444
same,area under dose-response curve,SUDIPGXVII [39],245
same,area under dose-response curve,SUDIPGXXI,587
same,area under dose-response curve,iAstro,314
CS[C@H]1SC[C@H]2C(=O)N(C)[C@@H](C(C)C)C(=O)OC[C@@H](NC(=O)c3cnc4ccccc4n3)C(=O)N[C@@H](C)C(=O)N(C)[C@@H]1C(=O)N(C)[C@@H](C(C)C)C(=O)OC[C@@H](NC(=O)c1cnc3ccccc3n1)C(=O)N[C@@H](C)C(=O)N2C [ECHINOMYCIN],EC50 (log10 M),HGGX42 [7],< -11
same,EC50 (log10 M),HGGX6 [8],-8.49
same,EC50 (log10 M),SUDIPGVI [10],-10.8
same,EC50 (log10 M),SUDIPGXIII [11],-8.75
same,EC50 (log10 M),SUDIPGXVII [13],-8.81
same,maximal growth inhibition,HGGX42 [20],76.3%
same,maximal growth inhibition,HGGX6 [21],75.4%
same,maximal growth inhibition,SUDIPGVI [23],71%
same,maximal growth inhibition,SUDIPGXIII [24],70.4%
same,maximal growth inhibition,SUDIPGXVII [26],96.4%
same,area under dose-response curve,DIPGX29,489
same,area under dose-response curve,DIPGX37 [27],508
same,area under dose-response curve,DIPGX7 [28],488
same,area under dose-response curve,DIPGX9 [29],510
same,area under dose-response curve,HABS [30],371
same,area under dose-response curve,HGGX2 [31],383
same,area under dose-response curve,HGGX39 [32],507
same,area under dose-response curve,HGGX42 [33],432
same,area under dose-response curve,HGGX6 [34],337
same,area under dose-response curve,SUDIPGIV [35],505
same,area under dose-response curve,SUDIPGVI [36],399
same,area under dose-response curve,SUDIPGXIII [37],335
same,area under dose-response curve,SUDIPGXIX [38],520
same,area under dose-response curve,SUDIPGXVII [39],425
same,area under dose-response curve,SUDIPGXXI,577
same,area under dose-response curve,iAstro,139
